Results on two molecules are retold here after patent publication US8138177B2 (dated 2012).

Where a name gives a salt, the structure may show the parent alone.

For orientation: melting point means the temperature, or range, at which the solid turns liquid. Take `Cc1cccc2c1n(CCS(C)(=O)=O)c(=O)n2C(=O)N[C@H](C(=O)N(C)C)C(C)(C)C`: the melting point is 190.7 °C.

Molecule `CC[C@H](C)[C@H](NC(=O)n1c(=O)n(CCN2CCCCC2)c2ccccc21)C(N)=O` (as salt: hydrochloride) displayed a melting point of 217.1 °C.
